Values quoted from earlier work, collected in patent US20080114067A1, “Composition for Recovery From or Prevention of Central Nervous System Fatigue” (priority 2005, published 2008).

Tested on: human placental cell
Details: placental brush border tissue

| SMILES | suppression of uptake of tryptophan |
| --- | --- |
| N[C@@H](CS)C(=O)O [L-cysteine] | could be suppressed |
| CC(C)C[C@H](N)C(=O)O [L-leucine] | could be suppressed |
| CSCC[C@H](N)C(=O)O [L-methionine] | could be suppressed |
| N[C@@H](Cc1ccccc1)C(=O)O [L-phenylalanine] | could be suppressed |
| CC(C)[C@H](N)C(=O)O [L-valine] | could be suppressed |
